The record followed here is US20250129087A1, “SALT CRYSTALS” (INTRA-CELLULAR THERAPIES, INC., priority 2022, published 2025).

Each structure is given as a SMILES string.

Data set [1] in a line: pH of the filtrated solutions (pH indication paper). The data set is classed as physicochemical. As to conditions: pH of the filtrated solution. As for the experimental part: (§1) Samples are filtered and diluted (in a mixture of acetonitrile/water (1/1)) for LC analysis. Solubilities are calculated with the use of a calibration line. Furthermore, the pH values of the filtrated solutions are determined using pH indication paper.

Data set [2] can be described thus: Aqueous solubility of the salt crystals (shaking in water for 24 hours, LC analysis). The data set is classed as physicochemical. The settings on record: appearance of the sample after shaking in water for 24 hours (Slurry or Clear). The method, then:
as §1

Take `CN1C(=O)c2c(nn(Cc3ccc(-c4cccc(F)n4)cc3)c2Nc2ccccc2)N2C1=N[C@@H]1CCC[C@@H]12.Nc1ccc(C(=O)O)c(O)c1` [Aminosalicylate Salt 1]: the pH in data set [1] is 5. Further, in data set [2], the Appearance entry is listed as “Slurry”. In data set [1], `CN1C(=O)c2c(nn(Cc3ccc(-c4cccc(F)n4)cc3)c2Nc2ccccc2)N2C1=N[C@@H]1CCC[C@@H]12.O=C(O)c1ccc2ccccc2c1O` [Xinafoate Salt 2] returned a pH of 7.

In data set [1], `CN1C(=O)c2c(nn(Cc3ccc(-c4cccc(F)n4)cc3)c2Nc2ccccc2)N2C1=N[C@@H]1CCC[C@@H]12.O=C(O)c1ccc2ccccc2c1O` [Xinafoate Salt 3] yielded a pH of 7.
